Calls of active or inactive are those of the source. The rule behind the calls is not given here.
What was measured:
RAW264.7 [1] = test: Inhibition of LPS-stimulated PGE2 production in mouse RAW264.7 cells treated 1 hr before LPS challenge after 24 hrs by ELISA; format: functional, cell-based
RAW264.7 [2] = test: Inhibition of LPS-stimulated TNFalpha production in mouse RAW264.7 cells treated 1 hr before LPS challenge after 24 hrs by ELISA; format: functional, cell-based
RAW264.7 [3] = test: Inhibition of LPS-stimulated IL1-beta production in mouse RAW264.7 cells treated 1 hr before LPS challenge after 24 hrs by ELISA; format: functional, cell-based
RAW264.7 [4] = test: Inhibition of LPS-stimulated IL6 production in mouse RAW264.7 cells treated 1 hr before LPS challenge after 24 hrs by ELISA; format: functional, cell-based
RAW264.7 [5] = test: Inhibition of LPS-induced NF-kappaB promoter activity in mouse RAW264.7 cells by luciferase reporter assay; format: functional, cell-based
RAW264.7 [6] = test: Increase in IkappaB protein expression in mouse RAW264.7 cells by Western blotting relative to control; format: functional, cell-based
RAW264.7 [7] = test: Reduction of LPS-induced NF-kappaB translocation in mouse RAW264.7 cells assessed as NF-kappaB p65 protein expression level at 40 ug/mL by Western blotting; format: functional, cell-based
RAW264.7 [8] = test: Inhibition of LPS-stimulated IL1-beta production in mouse RAW264.7 cells assessed as IL1-beta level at 50 ug/ml treated 1 hr before LPS challenge after 24 hrs by ELISA; format: functional
RAW264.7 [9] = test: Inhibition of LPS-stimulated ERK expression in mouse RAW264.7 cells by Western blotting; format: functional, cell-based
RAW264.7 [10] = test: Inhibition of LPS-stimulated TNFalpha production in mouse RAW264.7 cells at 60 ug/mL by Western blot analysis; format: functional, cell-based
RAW264.7 [11] = test: Inhibition of LPS-stimulated IL1-beta production in mouse RAW264.7 cells at 60 ug/mL by Western blot analysis; format: functional, cell-based
RAW264.7 [12] = test: Inhibition of LPS-stimulated p38MAPK expression in mouse RAW264.7 cells by Western blotting; format: functional, cell-based
RAW264.7 [13] = test: Inhibition of LPS-stimulated JNK level in mouse RAW264.7 cells by Western blotting; format: functional, cell-based
RAW264.7 [14] = test: Inhibition of LPS-stimulated PGE2 production in mouse RAW264.7 cells at 50 ug/ml treated 1 hr before LPS challenge after 24 hrs by ELISA; format: functional
RAW264.7 [15] = test: Inhibition of IKK protein expression in mouse RAW264.7 cells by Western blotting; format: functional, cell-based
RAW264.7 [16] = test: Inhibition of LPS-stimulated IL6 production in mouse RAW264.7 cells at 50 ug/ml treated 1 hr before LPS challenge after 24 hrs by ELISA; format: functional, cell-based
RAW264.7 [17] = test: Inhibition of LPS-stimulated TNFalpha production in mouse RAW264.7 cells at 50 ug/ml treated 1 hr before LPS challenge after 24 hrs by ELISA; format: functional
RAW264.7 [18] = test: Inhibition of LPS-stimulated IL6 production in mouse RAW264.7 cells at 60 ug/mL by Western blot analysis; format: functional, cell-based
RAW264.7 [19] = test: Effect on level of NIK in mouse RAW264.7 cells by Western blotting; format: functional, cell-based
RAW264.7 [20] = test: Reduction of LPS-induced NF-kappaB translocation in mouse RAW264.7 cells assessed as NF-kappaB p65 protein expression level at 60 ug/mL by Western blotting; format: functional, cell-based

## N[C@H]1C(O)O[C@H](CO)[C@@H](O)[C@@H]1O (stereo not given in full)
RAW264.7 [1]
  Activity: Dose-dependent effect
RAW264.7 [2]
  Activity: Dose-dependent effect
RAW264.7 [3]
  Activity: Dose-dependent effect
RAW264.7 [4]
  Activity: Dose-dependent effect

## C[N+](C)(C)CC(O)CN[C@@H]1[C@@H](O)[C@H](O)[C@@H](CO)O[C@H]1O.[Cl-] (stereo not given in full)
RAW264.7 [5]
  Activity: Dose-dependent effect
RAW264.7 [6]
  Activity: Active
RAW264.7 [7]
  Activity: Active
RAW264.7 [8]
  Activity: 100 pg/mL
RAW264.7 [9]
  Activity: inactive
RAW264.7 [10]
  Activity: Active
RAW264.7 [11]
  Activity: Active
RAW264.7 [12]
  Activity: Dose-dependent effect
RAW264.7 [13]
  Activity: Dose-dependent effect
RAW264.7 [14]
  inhibition at 50 µg/mL: 50%
RAW264.7 [15]
  Activity: Active
RAW264.7 [16]
  Activity: Active
RAW264.7 [17]
  inhibition at 50 µg/mL: 45%
RAW264.7 [18]
  Activity: Active
RAW264.7 [19]
  Activity: inactive
RAW264.7 [20]
  Activity: Active

Source: ChEMBL document CHEMBL1144216, “Suppression of cytokine production in lipopolysaccharide-stimulated mouse macrophages by novel cationic glucosamine derivative involves down-regulation of NF-kappaB and MAPK expressions” (2008)
